Measured values as given in PubChem BioAssay (NCI).
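Assay format: 96-well plates, 48-hour exposure. At the GI50, growth is halved. TGI marks complete inhibition of growth.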

Key:
Assay in all cases: NCI tumour cell line growth inhibition, 48 h
[1] = system: MOLT-4 leukemia
[2] = system: OVCAR-4 ovarian
[3] = system: RPMI-8226 leukemia
[4] = system: COLO 205 colon
[5] = system: OVCAR-5 ovarian
[6] = system: OVCAR-8 ovarian
[7] = system: MALME-3M melanoma
[8] = system: SF-295 CNS
[9] = system: SR leukemia
[10] = system: SNB-75 CNS
[11] = system: HCT-15 colon
[12] = system: HOP-62 NSCLC
[13] = system: UO-31 renal
[14] = system: U251 CNS
[15] = system: K-562 leukemia
[16] = system: ACHN renal
[17] = system: CAKI-1 renal
[18] = system: RXF 393 renal
[19] = system: SF-539 CNS
[20] = system: SNB-78 CNS
[21] = system: NCI-H23 lung
[22] = system: SK-OV-3 ovarian
[23] = system: M19-MEL melanoma
[24] = system: SN12C renal
[25] = system: DLD-1 colon
[26] = system: SK-MEL-5 melanoma
[27] = system: IGROV1 ovarian
[28] = system: HL-60(TB) leukemia
[29] = system: UACC-62 melanoma
[30] = system: TK-10 renal
[31] = system: KM12 colon
[32] = system: M14 melanoma
[33] = system: HOP-18 NSCLC
[34] = system: SK-MEL-2 melanoma
[35] = system: NCI-H460 lung
[36] = system: HCT-116 colon
[37] = system: A549 NSCLC
[38] = system: SW-620 colon
[39] = system: LXFL 529 NSCLC
[40] = system: DMS 273 small cell lung
[41] = system: UACC-257 melanoma
[42] = system: 786-0 renal
[43] = system: HOP-92 NSCLC
[44] = system: NCI-H226 lung
[45] = system: LOX IMVI melanoma
[46] = system: NCI-H522 lung
[47] = system: KM20L2 colon
[48] = system: SNB-19 CNS
[49] = system: OVCAR-3 ovarian
[50] = system: SK-MEL-28 melanoma
[51] = system: DMS 114 small cell lung
[52] = system: CCRF-CEM leukemia
[53] = system: HT29 colon
[54] = system: HCC-2998 colon
[55] = system: A498 renal
[56] = system: SF-268 CNS
[57] = system: EKVX NSCLC
[58] = system: XF 498 CNS

## O=C1C=CC(=O)c2c(O)c(NCCOCCO)c(Cl)c(O)c21
[1]
  TGI: 27.4 µM
[2]
  TGI: 5.91 µM
[3]
  TGI: > 100 µM
[4]
  TGI: 4.8 µM
[5]
  TGI: 34.1 µM
[6]
  TGI: 20.4 µM
[7]
  TGI: 8.43 µM
[8]
  TGI: 24.1 µM
[9]
  TGI: 37.9 µM
[10]
  TGI: 30.9 µM
[11]
  TGI: 3.64 µM
[12]
  TGI: 34.2 µM
[13]
  TGI: 29.7 µM
[14]
  TGI: 30.7 µM
[15]
  TGI: > 100 µM
[16]
  TGI: 28.7 µM
[17]
  TGI: 39.6 µM
[18]
  TGI: 27.1 µM
[19]
  TGI: 15 µM
[20]
  TGI: 30.2 µM
[21]
  TGI: 3.51 µM
[22]
  TGI: 31.1 µM
[23]
  TGI: 3.22 µM
[24]
  TGI: 23 µM
[25]
  TGI: 5.51 µM
[26]
  TGI: 4.47 µM
[27]
  TGI: 18.1 µM
[28]
  TGI: > 100 µM
[29]
  TGI: 11.7 µM
[30]
  TGI: 26.6 µM
[31]
  TGI: 15.1 µM
[32]
  TGI: 23.5 µM
[33]
  TGI: 29.1 µM
[34]
  TGI: 21.7 µM
[35]
  TGI: 13.6 µM
[36]
  TGI: 8.32 µM
[37]
  TGI: 19.1 µM
[38]
  TGI: 11 µM
[39]
  TGI: 20.4 µM
[40]
  TGI: 14.8 µM
[41]
  TGI: 8.34 µM
[42]
  TGI: 17.2 µM
[43]
  TGI: 39.4 µM
[44]
  TGI: 32.4 µM
[45]
  TGI: 16.7 µM
[46]
  TGI: 3.69 µM

## COc1cccc(C=O)c1[O-].[O]=[U](=[O])([OH2+])[OH2+]
[1]
  TGI: 73.2 µM
[2]
  TGI: > 100 µM
[3]
  TGI: > 100 µM
[4]
  TGI: > 100 µM
[5]
  TGI: > 100 µM
[6]
  TGI: 56.2 µM
[7]
  TGI: > 100 µM
[8]
  TGI: 78.6 µM
[9]
  TGI: 87.5 µM
[47]
  TGI: > 100 µM
[10]
  TGI: 81.3 µM
[48]
  TGI: 45.5 µM
[11]
  TGI: > 100 µM
[12]
  TGI: > 100 µM
[13]
  TGI: > 100 µM
[14]
  TGI: 59.1 µM
[49]
  TGI: 49.4 µM
[15]
  TGI: > 100 µM
[16]
  TGI: 79.8 µM
[17]
  GI50: > 100 µM
  TGI: > 100 µM
[50]
  TGI: > 100 µM
[18]
  TGI: 94.1 µM
[51]
  TGI: > 100 µM
[19]
  TGI: 64.9 µM
[20]
  TGI: > 100 µM
[21]
  TGI: > 100 µM
[52]
  TGI: > 100 µM
[22]
  TGI: 63.6 µM
[23]
  TGI: > 100 µM
[24]
  TGI: > 100 µM
[25]
  TGI: > 100 µM
[26]
  TGI: > 100 µM
[27]
  TGI: > 100 µM
[29]
  TGI: 57.6 µM
[30]
  TGI: 97.4 µM
[31]
  TGI: > 100 µM
[32]
  TGI: > 100 µM
[33]
  TGI: 88.9 µM
[53]
  TGI: > 100 µM
[34]
  TGI: > 100 µM
[35]
  TGI: 58.4 µM
[36]
  TGI: > 100 µM
[37]
  TGI: > 100 µM
[38]
  TGI: > 100 µM
[54]
  TGI: > 100 µM
[39]
  TGI: > 100 µM
[55]
  TGI: > 100 µM
[40]
  TGI: > 100 µM
[56]
  TGI: > 100 µM
[41]
  TGI: > 100 µM
[57]
  TGI: > 100 µM
[42]
  TGI: 71.9 µM
[43]
  TGI: > 100 µM
[44]
  TGI: > 100 µM
[45]
  TGI: > 100 µM
[46]
  TGI: > 100 µM

## COC(=O)CC(NC(=O)OCc1ccccc1)C(C(=O)OCc1ccccc1)C(C)(OC)OC (stereo unspecified)
[1]
  TGI: 33 µM
[2]
  TGI: > 100 µM
[3]
  TGI: 58.8 µM
[4]
  TGI: 34.1 µM
[6]
  TGI: > 100 µM
[7]
  TGI: 80.9 µM
[8]
  TGI: > 100 µM
[9]
  TGI: 53 µM
[47]
  TGI: > 100 µM
[58]
  TGI: 37.3 µM
[10]
  TGI: 64 µM
[48]
  TGI: > 100 µM
[11]
  TGI: > 100 µM
[12]
  TGI: > 100 µM
[13]
  TGI: 68.7 µM
[14]
  TGI: > 100 µM
[49]
  TGI: > 100 µM
[15]
  TGI: > 100 µM
[16]
  TGI: > 100 µM
[50]
  TGI: > 100 µM
[18]
  TGI: 96.9 µM
[51]
  TGI: 91.7 µM
[19]
  TGI: > 100 µM
[21]
  TGI: 74.7 µM
[52]
  TGI: 65.4 µM
[23]
  TGI: > 100 µM
[24]
  TGI: > 100 µM
[25]
  TGI: > 100 µM
[26]
  TGI: 26.7 µM
[27]
  TGI: > 100 µM
[28]
  TGI: 90.9 µM
[29]
  TGI: 42.3 µM
[30]
  TGI: > 100 µM
[32]
  TGI: > 100 µM
[53]
  TGI: > 100 µM
[34]
  TGI: 36.5 µM
[35]
  TGI: 80.2 µM
[36]
  TGI: > 100 µM
[37]
  TGI: 85.1 µM
[38]
  TGI: > 100 µM
[54]
  TGI: > 100 µM
[39]
  TGI: 57.2 µM
[55]
  TGI: > 100 µM
[40]
  TGI: > 100 µM
[56]
  TGI: > 100 µM
[41]
  TGI: 85.6 µM
[57]
  TGI: > 100 µM
[42]
  TGI: > 100 µM
[44]
  TGI: 97.5 µM
[45]
  TGI: 52.7 µM

## CCCC(=O)N[C@H]1C2C3CC4C5CC(C42)C1(C)C53 (stereo partly specified)
[1]
  TGI: > 100 µM
[2]
  TGI: > 100 µM
[3]
  TGI: > 100 µM
[4]
  TGI: > 100 µM
[5]
  TGI: > 100 µM
[7]
  TGI: > 100 µM
[8]
  TGI: > 100 µM
[9]
  TGI: > 100 µM
[47]
  TGI: > 100 µM
[10]
  TGI: > 100 µM
[48]
  TGI: > 100 µM
[11]
  TGI: > 100 µM
[12]
  TGI: > 100 µM
[13]
  TGI: > 100 µM
[14]
  TGI: > 100 µM
[49]
  TGI: > 100 µM
[15]
  TGI: > 100 µM
[16]
  TGI: > 100 µM
[17]
  TGI: > 100 µM
[50]
  TGI: > 100 µM
[18]
  TGI: > 100 µM
[19]
  TGI: > 100 µM
[20]
  TGI: > 100 µM
[52]
  TGI: > 100 µM
[22]
  TGI: > 100 µM
[23]
  TGI: > 100 µM
[24]
  TGI: > 100 µM
[25]
  TGI: > 100 µM
[26]
  TGI: > 100 µM
[27]
  TGI: > 100 µM
[28]
  TGI: > 100 µM
[29]
  TGI: > 100 µM
[30]
  TGI: > 100 µM
[31]
  TGI: > 100 µM
[32]
  TGI: > 100 µM
[33]
  TGI: > 100 µM
[53]
  TGI: > 100 µM
[34]
  TGI: > 100 µM
[35]
  TGI: > 100 µM
[36]
  TGI: > 100 µM
[37]
  TGI: > 100 µM
[38]
  TGI: > 100 µM
[54]
  TGI: > 100 µM
[55]
  TGI: > 100 µM
[40]
  TGI: > 100 µM
[56]
  TGI: > 100 µM
[41]
  TGI: > 100 µM
[57]
  TGI: > 100 µM
[42]
  TGI: > 100 µM
[43]
  TGI: > 100 µM
[44]
  TGI: > 100 µM
[45]
  TGI: > 100 µM
[46]
  TGI: > 100 µM
